Literature values, collected in patent US11766470B2, “Manufacture, formulation and dosing of apraglutide” (VectivBio AG, priority 2020, dated 2023).
Like-named read-outs stand apart in the source and are kept apart here.

Columns and labels:
[1] = cited from earlier work
[2] = cited from earlier work; remark: listed apart in the source
[3] = dosed once daily; cited from earlier work

For glepaglutide, the “Change from baseline increase in urinary output” value ([1]; 0.1 mg dose once daily) is listed as 111%, the “Change in baseline in energy absorption” value ([1]; 0.1 mg dose once daily) is listed as -377 kJ/day and the “Change in baseline in wet weight absorption” value ([1]; 0.1 mg dose once daily) is listed as -211 g/day. For the same compound, the “Change from baseline increase in urinary output” value ([1]; 1.0 mg dose once daily) was 140%, the “Change in baseline in energy absorption” value ([1]; 1.0 mg dose once daily) was 435 kJ/day and the “Change in baseline in wet weight absorption” value ([1]; 1.0 mg dose once daily) was 650 g/day. The “Change from baseline increase in urinary output” value ([1]; 10 mg dose once daily) was 132%, the “Change in baseline in energy absorption” value ([1]; 10 mg dose once daily) was 588 kJ/day and the “Change in baseline in wet weight absorption” value ([1]; 10 mg dose once daily) was 786 g/day.

In the case of “Glucagon-like peptide 2 [GLP-2, reference compound]”, the “Half-life t½” value [2] is given as 10 min.

In the case of `CC[C@H](C)[C@H](NC(=O)[C@H](Cc1ccccc1)NC(=O)[C@H](CC(=O)O)NC(=O)[C@H](CCCNC(=N)N)NC(=O)[C@H](C)NC(=O)[C@H](C)NC(=O)[C@H](CC(C)C)NC(=O)[C@H](CC(N)=O)NC(=O)[C@H](CC(=O)O)NC(=O)[C@H](CC(C)C)NC(=O)[C@@H](NC(=O)[C@@H](NC(=O)[C@H](CC(N)=O)NC(=O)[C@H](CCSC)NC(=O)[C@H](CCC(=O)O)NC(=O)[C@H](CC(=O)O)NC(=O)[C@H](CO)NC(=O)[C@H](Cc1ccccc1)NC(=O)[C@H](CO)NC(=O)CNC(=O)[C@H](CC(=O)O)NC(=O)CNC(=O)[C@@H](N)Cc1c[nH]cn1)[C@@H](C)O)[C@@H](C)CC)C(=O)N[C@@H](CC(N)=O)C(=O)N[C@@H](Cc1c[nH]c2ccccc12)C(=O)N[C@@H](CC(C)C)C(=O)N[C@H](C(=O)N[C@@H](CCC(N)=O)C(=O)N[C@H](C(=O)N[C@@H](CCCCN)C(=O)N[C@H](C(=O)N[C@H](C(=O)N[C@@H](CC(=O)O)C(=O)O)[C@@H](C)O)[C@@H](C)CC)[C@@H](C)O)[C@@H](C)CC` [teduglutide], the “Change from baseline increase in urinary input” value [3] is given as 139.3%, the “Change in baseline in energy absorption” value [3] is given as 792 kJ/day and the “Change in baseline in wet weight absorption” value [3] is given as 743 g/day.
